Results published in PMC6212948, “Fucoxanthin-Containing Cream Prevents Epidermal Hyperplasia and UVB-Induced Skin Erythema in Mice” (Marine Drugs, 2018).

Columns and labels:
[1] = system: TPA-induced epidermal hyperplasia in mice dorsal skin; test: TPA-induced epidermal hyperplasia model; assay type: in vivo, Swiss CD-1 mice; conditions: topical cream 100 mg per site containing 200 µg drug, vs TPA-cream group
Protocol: Female Swiss CD-1 mice (n = 10 per group) were used to study the effect of FX on TPA-induced hyperplasia in mice dorsal skin. Briefly, the dorsal hair of animals was removed with an electric clipper and treated with depilatory cream (Deliplus, Barcelona, Spain). After 24 h, the animals were assigned to the different groups: Sham (vehicle: 100 mg of cream with 0.2% of ethanol); TPA control group; TPA-Cream (vehicle: 100 mg of cream with 0.2% of ethanol); Dex-cream (100 mg of cream per site, containing 200 µg of Dex dissolved in ethanol at 10 µg/mL); FX-cream formulation (100 mg of cream per site, containing 200 µg of FX dissolved in ethanol at 10 µg/mL). The creams were applied to the dorsal skin in an area of 1 cm^2 using a syringe, during 2 days before the hyperplasia induction. Mice were anesthetized with ketamine (100 mg/kg of animal) and diazepam (5 mg/kg of animal) during treatments and TPA challenge. On day 4, TPA (2 nmol of TPA, dissolved in 20 µL of ethanol) was topically applied to the same areas on all groups except in sham group. After 1 h, FX-cream, the Dex-cream or vehicle were administered following the mentioned protocol. This procedure was replicated during two consecutive days. After 24 h of the last TPA dorsal application (day 7), mice were sacrificed by cervical dislocation and punch biopsies from the treated dorsal skin were weighed to evaluate edema, before further processing for histology and biochemical parameters.
The measurement of MPO activity was used as a marker of neutrophil infiltration. The tissue was thawed, weighed and homogenized in 10 volumes of 50 mM-PBS (pH 7.4). Then, the homogenate was centrifuged at 20,000× g for 20 min at 4 °C and the pellet was again homogenized in 10 volumes of 50 mM-PBS (pH 6) containing hexadecyl trimethylammonium bromide (0.5%) and 10 mM-EDTA. This homogenate was subjected to one cycle of freezing/thawing and sonicated. […] The changes in absorbance were monitorized at 450 nm with a microplate reader (Labysystem Multiskan EX, Thermo Scientific, New York, NY, USA). MPO activity unit was defined as the amount of enzyme present that produced a change in absorbance of 1.0 unit/min at 37 °C in the final reaction volume containing acetate. Results are expressed as units/mg tissue.
The samples were fixed in paraformaldehyde, dehydrated by increasing concentrations of ethanol and embedded in paraffin. […] Epidermal thickness was measured by using Scientific Imaging Systems (Biophotonics ImageJ Analysis Software; National Institutes of Health, Rockville, MD, USA).
COX-2 expression was measured by immunohistochemical analysis by using a streptavidin-biotin-peroxidase method. […]

[2] = system: TNF-α production in LPS-stimulated THP-1 macrophages; test: TNF-α production in LPS-stimulated THP-1 macrophages (ELISA); assay type: cell-based, human
Protocol: THP-1 monocytes were differentiated into macrophages in 96-well plates (10^4 cells/well). Then, cells were incubated for 1 h with FX (10, 30 and 50 µM). The positive reference compound used was Dex (1 µM) (Sigma-Aldrich, St. Louis, MO, USA). Inflammatory response was induced by addition of LPS (1 μg/mL) except for control group. After 24 h, commercial enzyme-linked immunosorbent assay (ELISA) kit (Diaclone GEN-PROBE, Besançon, France) was used to quantify TNF-α according to the manufacturer’s protocol.

[3] = cited from earlier work
[4] = system: HaCaT human keratinocytes; test: SRB cell viability assay, HaCaT keratinocytes; assay type: cell-based; conditions: for % Viability HaCaT keratinocytes (24 h): mean ± ES, n = 3
Protocol: (§1) The THP-1 human monocytic leukemia cell line and HaCaT human keratinocytes were obtained from the American Type Culture Collection (ATCC, Manassas, VA, USA). THP-1 cells were cultured in RPMI 1640 medium (GIBCO, Grand Island, New York, NY, USA) containing 10% heat-inactivated fetal bovine serum (FBS), 100 U/mL penicillin and 100 μg/mL streptomycin. HaCaT human keratinocytes were maintained in high glucose Dulbecco’s modified Eagle’s medium (DMEM, GIBCO, Grand Island, New York, NY, USA). Both cell lines were grown in a humidified atmosphere containing 5% CO2 at 37 °C [20].
(§2) SRB assay was used for determining the viability of THP-1 macrophages and HaCaT cells upon exposure to FX (Sigma-Aldrich, St. Louis, MO, USA). Firstly, for differentiation into macrophages, THP-1 cells were seeded into 96-well plates at 10^4 cells/well in presence of phorbol 12-myristate 13-acetate (PMA, Sigma-Aldrich, St. Louis, MO, USA) for a final concentration of 0.2 µM for 72 h in 96-well plates and HaCaT cells were seeded into 96-well plates in the growth medium at 10^4 cells/well for 24 h to ensure the adherence. Both cellular types were incubated in a humidified atmosphere of 5% CO2 at 37 °C. After that, cells were treated with FX at final concentrations range of 10–100 µM in DMSO 0.1% (v/v) and the cytotoxicity was measured after 24, 48 and 72 h of incubation. The absorbance was determined at 492 nm in a microplate spectrophotometer (Sinergy HT, Biotek®, Bad Friedrichshall, Germany).

[5] = system: UVB-irradiated HaCaT cells; test: LDH assay in UVB-irradiated HaCaT keratinocytes; assay type: cell-based, human; conditions: 10, 30 and 50 μM, 1 h prior to UVB 50 mJ/cm^2, 24 h, dose-dependent
Protocol: (§3) Human keratinocytes were exposed to UVB radiation as previously described. Briefly, the cells were grown to confluence and were treated with different concentrations of FX (10, 30 and 50 µM) for 1 h. Then, the medium was removed and a thin layer of PBS was added. Cells were exposed to a single dose of UVB radiation (50 mJ/cm^2) for 1 min. The UVB source was a CL-1000M UV Crosslinker (UVP, Upland, CA, USA), which was used to deliver an energy spectrum of UVB light (280–315 nm; peak intensity, 302 nm). After UVB irradiation, the cells were supplied with fresh complete medium and incubated for 24 h.
The measure of cytosolic enzyme LDH is one of the commonly used methods for assessing loss of cellular membrane integrity. The assay is based on the conversion of […] in the presence of LDH with the consequence oxidation of NADH as previously described. HaCaT cells were seeded in 6-well plates (5 × 10^5 cells/well). After 24 h, cells were treated with FX (10, 30 and 50 μM) for 1 h and then, were irradiated with UVB. After 24 h, cell-free supernatants and cell lysates were mixed in a 96-well plate and the absorbance was read by using a microplate reader system (Sinergy HT, Biotek®, Bad Friedrichshall, Germany). LDH leakage was estimated calculating the LDH activity in the cell-free medium and LDH activity in lysates ratio. […]

[6] = system: UVB-irradiated HaCaT cells; test: Intracellular ROS (DCF-DA assay) in UVB-irradiated HaCaT keratinocytes; assay type: cell-based, human; conditions: 1 h prior to UVB 50 mJ/cm^2, 30 min after irradiation, vs UVB
Protocol: as §3
For quantification of ROS in HaCaT cells, the DCF-DA assay was employed. HaCaT cells were seeded in nin96-well plates (10^4 cells/well). Non-irradiated cells were used as negative control. After 24 h, cells were treated with FX (10, 30 and 50 µM) for 1 h and then, were exposed to UVB. Post irradiation, cells were incubated with 2′,7′-dichlorodihydrofluorescein diacetate (DCFH-DA) solution (5 mg/mL) in PBS for 30 min [63]. The fluorescence of the 2′,7′-dichlorofluorescein (DCF) product was determined using a fluorescence plate reader (Sinergy HT, Biotek®, Bad Friedrichshall, Germany) at 485 nm for excitation and 535 nm for emission.

THP-1 macrophages = test: SRB cell viability assay, THP-1 macrophages; assay type: cell-based, human; conditions: for % Viability THP-1 macrophages (24 h): mean ± ES, n = 3
Protocol: as §1, §2

[7] = system: IL-6 and IL-8 production in TNF-α-stimulated HaCaT keratinocytes; test: IL-6 and IL-8 production in TNF-α-stimulated HaCaT keratinocytes (ELISA); assay type: cell-based, human; conditions: all concentrations tested (10, 30 and 50 μM), 1 h pre-treatment, TNF-α 10 ng/mL 24 h, vs TNF-α group
Protocol: HaCaT cells were seeded in 6-well plates (5 × 10^5 cells/well). After 24 h, cells were washed twice (PBS, 4 °C) and medium containing FX (10, 30 and 50 μM) or Dex (1 μM) was added for 1 h, and then cells were stimulated with TNF-α (10 ng/mL) except for control group. After 24 h, supernatant fluids were collected and stored −80 °C until measurements. Commercial enzyme-linked immunosorbent assay (ELISA) kit (Diaclone GEN-PROBE, Besançon, France) was used to quantify IL-6 and IL-8 according to the manufacturer’s protocol.

[8] = system: IL-6 production in UVB-exposed HaCaT keratinocytes; test: IL-6 production in UVB-exposed HaCaT keratinocytes (ELISA); assay type: cell-based, human; conditions: 1 h prior to UVB, 24 h after exposure, vs UVB
Protocol: as §3
HaCaT cells (5 × 10^5 cells/well) were seeded in 6-well plates. After 24 h, cells were treated with FX (10, […] and 50 μM) for 1 h and then, were exposed to UVB. After 24 h, supernatant fluids were collected and ELISA kit (Diaclone GEN-PROBE, Besançon, France) was employed to quantify IL-6 according to the manufacturer’s protocol. The absorbance at 450 nm was read by a microplate reader (Labysystem Multiskan EX, Thermo Scientific, New York, NY, USA).

[9] = 24 h after treatment, SRB assay

C[C@@H]1C[C@H]2[C@@H]3CCC4=CC(=O)C=C[C@]4(C)[C@@]3(F)[C@@H](O)C[C@]2(C)[C@@]1(O)C(=O)CO [Dex, dexamethasone]
epidermal hyperplasia (epidermal thickness, H&E) [1]: significant improvement | myeloperoxidase (MPO) activity in skin homogenates [1]: markedly diminished | epidermal COX-2-positive stained cells (immunohistochemistry) ([1]; p < 0.001): confirmed the anti-inflammatory effect | skin edema (weight of 1 cm^2 punch biopsy) ([1]; p < 0.001): significantly reduced

CC(=O)O[C@H]1CC(C)(C)C(=C=C/C(C)=C/C=C/C(C)=C/C=C/C=C(C)/C=C/C=C(\C)C(=O)C[C@@]23O[C@]2(C)C[C@@H](O)CC3(C)C)[C@](C)(O)C1 [FX, fucoxanthin]
TNF-α production ([2]; 50 µM pre-treatment, LPS-stimulated, p < 0.001, similar values to Dex 1 μM): significant reduction | TNF-α production ([2]; all concentrations tested (10, 30 and 50 μM), 1 h pre-treatment, LPS 1 μg/mL 24 h, vs LPS group): significantly reduced | partition coefficient (log P) [3]: 6.83–7.54 | % Viability HaCaT keratinocytes (24 h) ([4]; 10 μM): 111.2 ± 2.1% | % Viability HaCaT keratinocytes (24 h) ([4]; 30 μM): 105.2 ± 4.0% | % Viability HaCaT keratinocytes (24 h) ([4]; 50 μM): 103.9 ± 3.2% | % Viability HaCaT keratinocytes (24 h) ([4]; 100 μM): 101.5 ± 2.2% | IC50 [4, 9]: > 100 µM | UVB-induced mortality (LDH activity) [5]: significantly decreased | reduction of ROS levels ([6]; 10 μM): 23% | reduction of ROS levels ([6]; 30 μM): 31% | reduction of ROS levels ([6]; 50 μM): 32% | % Viability THP-1 macrophages (24 h) (THP-1 macrophages; 10 μM): 97.5 ± 2.0% | % Viability THP-1 macrophages (24 h) (THP-1 macrophages; 30 μM): 96.5 ± 1.2% | % Viability THP-1 macrophages (24 h) (THP-1 macrophages; 50 μM): 103.7 ± 1.1% | % Viability THP-1 macrophages (24 h) (THP-1 macrophages; 100 μM): 90.7 ± 0.5% | IC50 (THP-1 macrophages; [9]): > 100 µM | IL-6 production [7]: significantly reduced | IL-8 production [7]: significantly reduced | inhibition of IL-6 levels ([8]; 10 μM): 23% | inhibition of IL-6 levels ([8]; 30 μM): 31% | inhibition of IL-6 levels ([8]; 50 μM): 59%
